The text below walks through data of patent publication US7207289B2, “Method of feeding the cattle with feed additives that increases beef production and reduces liver abscess” (Intervet International B.V., priority 2004, dated 2007).

In one assay the test system is steers. The assay can be described thus: Study V-0238-0017: effects of Rumensin plus Tylan and zilpaterol on liver abscess rates in feedlot steers. The class given is in vivo, cattle. An excerpt: In study number V-0238-0017 a total of 3,945 steers were used to test the effects of Rumensin® plus Tylan® and zilpaterol on feedlot performance, liver abscess rates, and carcass traits. The inventors discovered that Tylan® and Rumensin® could be removed from the diet for the last 30 days to feed zilpaterol without negatively affecting liver abscess rates. In fact it was discovered that zilpaterol decreased the incidence of liver abscesses.
Study Number V-0238-0017, Effects of Zilpaterol on Liver Abscesses

Another assay relates to steers and heifers. Briefly: Zilpaterol efficacy studies V-0238-0019, V-0238-0020, V-0238-0021 (pooled analysis): liver abscesses and feed intake. Format: in vivo, cattle. An excerpt:
All of these cattle had been fed Tylan® up to the last 20 to 40 days on feed at which time Tylan® was removed and cattle were either fed a control diet without Tylan®, Rumensin® or zilpaterol or cattle were fed a treatment diet containing just zilpaterol. While the mechanism by which zilpaterol decreases liver abscess is not fully clear at this time, it seems that zilpaterol functions to decrease liver abscesses by decreasing feed intake. Because the liver abscesses discovered at slaughter are formed during the last ˜60 days or less on feed and this is the same time zilpaterol is fed, a decrease in feed intake would result in a decrease in acid production and possibly a decrease in rumen wall lesions and rumenitis.
Summary of Zilpaterol Efficacy Studies (Pooled Analysis), Study Numbers, V-0238-0019, V-0238-0020, and V-0238-0021 on Liver Abscesses and Feed Intake

The next assay deals with cattle. The note with it: cited from earlier work.

The structures appear in SMILES notation.

Turning to `CC(C)NC1CCn2c(=O)[nH]c3cccc(c32)C1O` (stereo not shown) [Zilpaterol], the “Live Abscess, %” value in the assay with steers (166-day study, 3,945 steers, 10 pens per treatment, zilpaterol fed for the last 30 days on feed) came to 13.29%. Moreover, in the assay on steers (study V-0238-0017, steers), the “incidence of liver abscesses (effect in words)” value is “decreased”. In the assay on steers and heifers (pooled analysis of three studies, zilpaterol for the last 20 or 40 days), the “Average Daily Dry Matter Intake, lbs.” value was found to be 18.69 lbs. Besides, the “% of Livers Condemned for Abscesses” value with steers and heifers (pooled, 957 animals, Tylan removed for the last 20 to 40 days, diet containing just zilpaterol) was found to be 19.1%. In addition, the “liver abscesses (effect in words)” value in the assay with steers and heifers (steers and heifers supplemented for 20 or 40 days) was “significantly decreased”.

Regarding `CC[C@H]1OC(=O)C[C@@H](O)[C@H](C)[C@@H](O[C@@H]2O[C@H](C)[C@@H](O[C@H]3C[C@@](C)(O)[C@@H](O)[C@H](C)O3)[C@H](N(C)C)[C@H]2O)[C@@H](CC=O)C[C@@H](C)C(=O)/C=C/C(C)=C/[C@@H]1CO[C@@H]1O[C@H](C)[C@@H](O)[C@@H](OC)[C@H]1OC` [Tylan, Tylosin], in the assay with cattle (Laudert and Vogel (1994)), the “feed intake and dressing percentage” value was “only minor effects”; the “gain and feed to gain ratio” value is reported as “improved”. Moreover, in the assay on cattle (Potter et al. (1985)), the average daily gain entry is “improved” and the feed intake result was “no effect”. Besides, the “liver abscesses being reduced” value with cattle (cattle treated with Tylan, typical) was 63 to 71%.
